# Source: ChEMBL document CHEMBL2021834, “Novel sulfonylurea derivatives as H3 receptor antagonists. Preliminary SAR studies” (Eur J Med Chem, 2012)
# Target: Voltage-gated inwardly rectifying potassium channel KCNH2 (Homo sapiens, UniProt Q12809)
# Sequence (Q12809 whole entry): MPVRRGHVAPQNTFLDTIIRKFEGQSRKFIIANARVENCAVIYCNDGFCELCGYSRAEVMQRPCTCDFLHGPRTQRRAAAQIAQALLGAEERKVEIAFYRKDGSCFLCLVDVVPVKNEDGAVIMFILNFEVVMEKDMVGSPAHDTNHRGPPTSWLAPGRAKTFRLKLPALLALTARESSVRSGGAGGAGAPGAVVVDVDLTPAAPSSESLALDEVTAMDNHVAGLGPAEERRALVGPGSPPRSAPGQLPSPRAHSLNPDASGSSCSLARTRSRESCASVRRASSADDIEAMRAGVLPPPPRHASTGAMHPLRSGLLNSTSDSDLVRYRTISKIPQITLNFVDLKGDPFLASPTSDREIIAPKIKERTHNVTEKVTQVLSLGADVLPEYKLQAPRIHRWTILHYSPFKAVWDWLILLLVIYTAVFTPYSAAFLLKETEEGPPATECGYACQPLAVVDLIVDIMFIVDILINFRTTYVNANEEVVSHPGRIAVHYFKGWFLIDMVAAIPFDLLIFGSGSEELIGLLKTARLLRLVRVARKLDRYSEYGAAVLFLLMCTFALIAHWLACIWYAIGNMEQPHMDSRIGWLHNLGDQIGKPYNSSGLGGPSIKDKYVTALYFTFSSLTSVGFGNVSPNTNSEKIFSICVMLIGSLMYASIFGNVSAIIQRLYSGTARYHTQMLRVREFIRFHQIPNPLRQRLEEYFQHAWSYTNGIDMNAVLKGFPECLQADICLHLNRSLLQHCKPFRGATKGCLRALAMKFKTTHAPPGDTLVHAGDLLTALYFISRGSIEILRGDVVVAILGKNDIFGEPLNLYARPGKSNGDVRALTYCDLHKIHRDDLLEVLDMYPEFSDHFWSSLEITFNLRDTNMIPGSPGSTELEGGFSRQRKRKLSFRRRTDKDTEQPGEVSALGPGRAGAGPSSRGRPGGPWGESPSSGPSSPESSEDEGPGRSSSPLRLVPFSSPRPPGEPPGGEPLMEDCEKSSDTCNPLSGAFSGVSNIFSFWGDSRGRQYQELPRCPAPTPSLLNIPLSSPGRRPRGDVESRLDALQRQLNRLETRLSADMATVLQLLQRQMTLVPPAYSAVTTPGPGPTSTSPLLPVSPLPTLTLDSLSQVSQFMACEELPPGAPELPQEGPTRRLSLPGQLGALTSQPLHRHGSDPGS
# Description: Displacement of [3H] dofetilide from human ERG channel expressed in HEK293 cells after 45 mins by scintillation counting method
row,SMILES,IC50 [µM]
1,O=C(Nc1ccccc1)NS(=O)(=O)c1ccc(OCCCN2CCCCC2)cc1,> 100
2,CCOC(=O)C1CCN(CCCCOc2ccc(S(N)(=O)=O)cc2)CC1,18.8
3,O=C(Nc1ccc(C(F)(F)F)cc1)NS(=O)(=O)c1ccc(OCCCCN2CCCC2)cc1,49.1
4,CCOC(=O)C1CCN(CCCOc2ccc(S(N)(=O)=O)cc2)CC1,76.5
5,O=C(Nc1ccccc1C(F)(F)F)NS(=O)(=O)c1ccc(OCCCN2CCCCC2)cc1,> 100
6,COc1ccc(NC(=O)NS(=O)(=O)c2ccc(OCCCN3CCCCC3)cc2)cc1,> 100
7,Cc1ccc(NC(=O)NS(=O)(=O)c2ccc(OCCCN3CCCCC3)cc2)cc1,> 100
8,CCOC(=O)C1CCN(CCCCOc2ccc(S(=O)(=O)NC(=O)Nc3ccccc3)cc2)CC1,> 100
9,O=C(Nc1ccc(C(F)(F)F)cc1)NS(=O)(=O)c1ccc(OCCN2CCCCC2)cc1,> 100
10,CC(C)NC(=O)NS(=O)(=O)c1ccc(OCCN2CCCC2)cc1,> 100
11,O=C(Nc1ccc(C(F)(F)F)cc1)NS(=O)(=O)c1ccc(OCCN2CCCC2)cc1,> 100
12,O=C(Nc1cc(Cl)ccc1Cl)NS(=O)(=O)c1ccc(OCCCCN2CCCCC2)cc1,> 100
13,O=C(Nc1cccc2ccccc12)NS(=O)(=O)c1ccc(OCCCN2CCCC2)cc1,> 100
14,CCOC(=O)C1CCN(CCOc2ccc(S(=O)(=O)NC(=O)Nc3ccccc3)cc2)CC1,> 100
